For assay [1], the system named is Mycobacterium tuberculosis. As to the kind of experiment: Antimycobacterial activity against Mycobacterium tuberculosis ATCC 25177 at 5 ug/disk by disk diffusion susceptibility assay. It is filed as functional. As to conditions: read-out: DIZ. A general note: Agar diffusion results depend on both activity and mobility in agar.
In assay [2] the test system is Mycobacterium tuberculosis. Put plainly: Antimycobacterial activity against Mycobacterium tuberculosis ATCC 35818 at 25 ug/disk by disk diffusion susceptibility assay. The format is functional. The note with it: read-out: DIZ.
In assay [3] the test system is Mycobacterium tuberculosis. As to the kind of experiment: Antimycobacterial activity against Mycobacterium tuberculosis ATCC 25177 at 1 ug/disk by disk diffusion susceptibility assay. It is filed as functional. The note with it: read-out: DIZ.
Assay [4] concerns Mycobacterium tuberculosis. As to the kind of experiment: Antimycobacterial activity against Mycobacterium tuberculosis ATCC 25177 at 25 ug/disk by disk diffusion susceptibility assay. The format is functional. As to conditions: read-out: DIZ.
Assay [5] has as its system Mycobacterium tuberculosis. Put plainly: Antimycobacterial activity against Mycobacterium tuberculosis ATCC 35818 at 1 ug/disk by disk diffusion susceptibility assay. As to conditions: read-out: DIZ. The format is functional.
Assay [6] deals with Mycobacterium tuberculosis. Put plainly: Antimycobacterial activity against Mycobacterium tuberculosis ATCC 35818 at 5 ug/disk by disk diffusion susceptibility assay. The note with it: read-out: DIZ. The format is functional.
A further assay deals with LoVo. Put plainly: Cytotoxicity against human LoVo cells. The format is functional, cell-based.
Assay [7] in a line: Inhibition of trypsin.
Assay [8] concerns the target Plasminogen (Homo sapiens) (UniProt P00747). Put plainly: Inhibition of plasmin.
The subject of assay [9] is Mycobacterium tuberculosis. As to the kind of experiment: Antimycobacterial activity against Mycobacterium tuberculosis ATCC 35818 at 100 ug/disk by disk diffusion susceptibility assay. The note with it: read-out: DIZ. The format is functional.
The nature of assay [10]: Stimulation of elastase activity at 50 ug/ml relative to control.
The subject of assay [11] is Mycobacterium tuberculosis. Put plainly: Antimycobacterial activity against Mycobacterium tuberculosis ATCC 25177 at 100 ug/disk by disk diffusion susceptibility assay. The format is functional. The note with it: read-out: DIZ.
Assay [12] can be described thus: Inhibition of chymotrypsin.
For assay [13], the target named is Prothrombin (Homo sapiens) (UniProt P00734). Put plainly: Inhibition of thrombin.
The next assay addresses T1, Papain (Carica papaya) (UniProt P00784).
T1 sequence (whole entry): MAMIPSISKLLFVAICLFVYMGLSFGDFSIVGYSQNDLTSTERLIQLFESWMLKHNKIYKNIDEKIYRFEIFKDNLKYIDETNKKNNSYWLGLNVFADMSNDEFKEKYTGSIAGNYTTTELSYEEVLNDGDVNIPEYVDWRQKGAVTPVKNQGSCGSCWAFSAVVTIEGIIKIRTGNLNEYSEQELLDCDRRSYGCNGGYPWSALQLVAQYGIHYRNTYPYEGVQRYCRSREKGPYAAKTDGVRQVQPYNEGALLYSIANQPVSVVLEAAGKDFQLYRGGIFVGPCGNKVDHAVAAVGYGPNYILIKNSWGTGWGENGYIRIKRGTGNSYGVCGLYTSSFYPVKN
As to the kind of experiment: Inhibition of papaya papain.

Assay [14] can be described thus: Inhibition of elastase.

Converted amounts (≈) assume the structure as drawn. The source made the active and inactive calls. The calls are words filed in the database; no cut-off is given here. Numbered stars: 1 amine (or outer) side, 2 acyl side, 3 side chain; on linkers, the order of the positions; unused ones are H or OH. Bridge positions count the residues as written; N and C are the ends. Square brackets hold non-standard residues; d marks the D form. Peptide text beside a SMILES is read from it. X1 = C=CCCC[C@H](O[*:2])C(C)(C)C(=O)[*:1]; X2 = C#CCCC[C@H](O[*:2])C(C)(C)C(=O)[*:1]; Hmpa(2S,3S) = CC[C@H](C)[C@H](O)C(=O)O; NMeF = CN[C@@H](Cc1ccccc1)C(=O)O

From ChEMBL document CHEMBL1150566, “Pitipeptolides A and B, new cyclodepsipeptides from the marine cyanobacterium Lyngbya majuscula” (J Nat Prod, 2001) come the findings set out here.

Chain of Plasminogen (Homo sapiens) (P00747 97-580 limits assumed): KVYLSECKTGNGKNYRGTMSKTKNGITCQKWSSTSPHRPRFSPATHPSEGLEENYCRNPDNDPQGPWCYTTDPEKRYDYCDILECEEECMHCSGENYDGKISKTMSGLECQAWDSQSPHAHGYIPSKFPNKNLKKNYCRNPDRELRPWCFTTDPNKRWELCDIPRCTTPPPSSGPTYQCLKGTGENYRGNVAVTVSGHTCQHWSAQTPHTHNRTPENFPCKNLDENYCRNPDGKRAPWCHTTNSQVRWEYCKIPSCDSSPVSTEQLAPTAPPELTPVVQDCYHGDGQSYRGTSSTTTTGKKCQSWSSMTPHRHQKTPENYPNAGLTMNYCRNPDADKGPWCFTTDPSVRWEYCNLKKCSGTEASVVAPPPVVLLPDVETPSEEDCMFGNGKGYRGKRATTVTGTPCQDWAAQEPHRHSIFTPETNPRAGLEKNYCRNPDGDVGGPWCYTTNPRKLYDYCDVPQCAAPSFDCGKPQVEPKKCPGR
Chain of Plasminogen (Homo sapiens) (P00747 581-810 limits assumed): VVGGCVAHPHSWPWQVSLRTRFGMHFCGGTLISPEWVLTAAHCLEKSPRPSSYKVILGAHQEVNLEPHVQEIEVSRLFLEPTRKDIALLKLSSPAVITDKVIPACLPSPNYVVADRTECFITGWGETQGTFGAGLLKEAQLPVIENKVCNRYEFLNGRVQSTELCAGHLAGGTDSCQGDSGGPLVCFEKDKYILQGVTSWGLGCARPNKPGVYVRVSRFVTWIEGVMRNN

With `CN[C@@H]1[C@H](O[C@H]2[C@H](O[C@H]3[C@H](O)[C@@H](O)[C@H](N=C(N)N)[C@@H](O)[C@@H]3N=C(N)N)O[C@@H](C)[C@]2(O)C=O)O[C@@H](CO)[C@H](O)[C@H]1O` [STREPTOMYCIN], the zone of inhibition at 5 µg/disc was 15 mm in assay [1] and 33 mm in assay [6]. Also, the results for the zone of inhibition at 25 µg/disc in assay [2] and in assay [4] were 55 mm and 50 mm, respectively. Further, the results for the zone of inhibition at 1 µg/disc in assay [3] and in [5] were 0 mm and 10 mm, respectively.
With `C#CCCC[C@@H]1OC(=O)CNC(=O)[C@H]([C@@H](C)CC)NC(=O)[C@@H]2CCCN2C(=O)[C@H]([C@@H](C)CC)OC(=O)[C@H](Cc2ccccc2)N(C)C(=O)[C@H](C(C)C)NC(=O)C1(C)C` [PITIPEPTOLIDE A] (V[NMeF][Hmpa(2S,3S)]PIG; linker N-C via X2), the IC50 – broadly, the concentration that inhibits the measured activity by half – in the assay on LoVo was 2.25 µg/mL (≈ 2.78 µM). Further, the result (in assay [7]; in assay [8]; in assay [12]; in assay [13]; on Papain (Carica papaya); in assay [14]) was inactive. Further, the zone of inhibition at 25 µg/disc was 9 mm in assay [2] and 10 mm in assay [4]. In addition, the zone of inhibition at 100 µg/disc in assay [9] worked out at 15 mm; in assay [11], 25 mm. Also, in [10], the fold change (FC) is 2.76.
For the molecule `C=CCCC[C@@H]1OC(=O)CNC(=O)[C@H]([C@@H](C)CC)NC(=O)[C@@H]2CCCN2C(=O)[C@H]([C@@H](C)CC)OC(=O)[C@H](Cc2ccccc2)N(C)C(=O)[C@H](C(C)C)NC(=O)C1(C)C` [PITIPEPTOLIDE B] (V[NMeF][Hmpa(2S,3S)]PIG; linker N-C via X1), in the assay with LoVo, the IC50 turned out to be 1.95 µg/mL (≈ 2.41 µM). The outcome (in assay [7]; in assay [8]; in assay [12]; in assay [13]; on Papain (Carica papaya); in assay [14]) was inactive. Besides, the zone of inhibition at 25 µg/disc in assay [2] was 10 mm; in assay [4], 15 mm. The zone of inhibition at 100 µg/disc in assay [9] was 15 mm; in assay [11] it was 30 mm. Also, the fold change (FC) in assay [10] was found to be 2.55.
